Assay results taken from patent US20210345607A1, “MICROEMULSION FORMULATION CONTAINING CLACYFOS HERBICIDE, PREPARATION METHOD THEREFOR AND USE THEREOF” (Central China Normal University, priority 2018, published 2021).

Experiments:
wheat = experiment: Safety of 15% and 25% clacyfos microemulsion used in wheat fields, increase in production (B9); assay type: in vivo
Source text: The microemulsion of 15% clacyfos (the amount of clacyfos added is 15%, the preparation process is referred to preparation example A3) is in the dosage range of 180 g/hm^2 to 600 g/hm^2. The microemulsion of 25% clacyfos (the addition amount of the clacyfos is 25%, the preparation process is referred to preparation example A7) is in the dosage range of 150 g/hm^2 to 720 g/hm^2. At various testing areas, clacyfos was used by stems and leaves treatment of wheat field wheat seedlings.

[1] = test system: Abutilontheophrasti Medicus; experiment: Inhibitory activity of clacyfos against 22 plants or weeds (B12); settings: in vivo
Source text: (§1) Combining the results of indoor and field tests of clacyfos, the herbicidal spectrum of clacyfos can be summarized as follows:
(§2) Echinochloa crusgalli Beava; Digitaria Sanguinalis scop; Alopecurus aequalis; Alopecurus japonicus steud; Setaria viridis; Cynodon dactylon; Eleusine indica; Leptochloa chinensis; Arthraxon hispidus; Eleusine indica; Imperata cyllndrlca; Cyperus difformis; Cyperus iria; Kyllinga brevifolia; Poa cnnua; Monochoria vaginalis; Potamogeton distinctus; Sagittaria pygmaea; Cyperus iria; Eleocharis yokoscensis; Digitaria adscendens; Equisetum arvenense.

[2] = test system: Alopecurus aequalis Sobol; experiment: as above; settings: in vivo
Source text: as §1, §2

[3] = test system: Amaranthus rebroflexus L.; experiment: as above; settings: in vivo
Source text: as §1, §2

Amaranthus retroflexus = experiment: as above; settings: in vivo
Source text: as §1, §2

Beta Vulgaris = experiment: as above; settings: in vivo
Source text: as §1, §2

Brassica campestris = experiment: as above; settings: in vivo
Source text: as §1, §2

Brassica pekinensis = experiment: as above; settings: in vivo
Source text: as §1, §2

Chenopodium album L. = experiment: as above; settings: in vivo
Source text: as §1, §2

Cyperus microiria = experiment: as above; settings: in vivo
Source text: as §1, §2

Daucus carota L. = experiment: as above; settings: in vivo
Source text: as §1, §2

[4] = test system: Digitaria sanguinalis(L.) Scop; experiment: as above; settings: in vivo
Source text: as §1, §2

[5] = test system: Echinochloa crusgalli (L.); experiment: as above; settings: in vivo
Source text: as §1, §2

Eclipta prostrata L. = experiment: as above; settings: in vivo
Source text: as §1, §2

[6] = test system: Eleusine indica (L.) Gaertn; experiment: as above; settings: in vivo
Source text: as §1, §2

Galium aparine = experiment: as above; settings: in vivo
Source text: as §1, §2

Herba Cirsii Jeponici = experiment: as above; settings: in vivo
Source text: as §1, §2

Ipomoea heperacea = experiment: as above; settings: in vivo
Source text: as §1, §2

Medicago saliva = experiment: as above; settings: in vivo
Source text: as §1, §2

Poa annua L. = experiment: as above; settings: in vivo
Source text: as §1, §2

Rumex crispus L. = experiment: as above; settings: in vivo
Source text: as §1, §2

[7] = test system: Setaria viridis(L.) Beauv; experiment: as above; settings: in vivo
Source text: as §1, §2

Sinapis alba = experiment: as above; settings: in vivo
Source text: as §1, §2

[8] = test system: Dicotyledonous and sedge weeds; experiment: Clacyfos weeding spectrum, indoor and field tests (B12); assay type: in vivo; settings: recommended dosage of 450 g/hm^2
Source text: Combining the results of indoor and field tests of clacyfos, the herbicidal spectrum of clacyfos can be summarized as follows: […]

monocotyledonous weeds = experiment: as above; assay type: in vivo; settings: 700 g/hm^2 to 800 g/hm^2
Source text: as §1, §2

## Cc1cc(Cl)ccc1OCC(=O)O [2-methyl-4-chlorophenoxyacetic acid]
wheat; Henan, 32.5 g/mu
  Increase in production compared with the control agent: acid 32.5 g (5.51%)
  phytotoxicity to wheat: a certain phytotoxicity
wheat; Zaoyang, 40 g/mu
  Increase in production compared with the control agent: acid 40 g (20.91%)

## COP(=O)(OC)C(C)OC(=O)COc1ccc(Cl)cc1Cl (centres unmarked) [clacyfos, O, O-dimethyl-1-(2,4-dichlorophenoxyacetoxy) ethyl phosphonate]
[1]
  Sensitivity: Sensitive
  Visual activity: 85%
[2]
  Sensitivity: Resistance
  Visual activity: 0%
[3]
  Visual activity: 100%
Amaranthus retroflexus
  Visual activity: 100%
Beta Vulgaris
  Visual activity: 95%
Brassica campestris
  Visual activity: 100%
Brassica pekinensis
  Visual activity: 100%
Chenopodium album L.
  Visual activity: 100%
Cyperus microiria
  Sensitivity: Sensitive
  Visual activity: 90%
Daucus carota L.
  Visual activity: 100%
[4]
  Visual activity: 40%
[5]
  Visual activity: 30%
Eclipta prostrata L.
  Visual activity: 100%
[6]
  Visual activity: 100%
Galium aparine
  Visual activity: 60%
Herba Cirsii Jeponici
  Visual activity: 100%
Ipomoea heperacea
  Visual activity: 100%
Medicago saliva
  Sensitivity: Sensitive
  Visual activity: 90%
Poa annua L.
  Visual activity: 50%
Rumex crispus L.
  Sensitivity: Sensitive
  Visual activity: 80%
[7]
  Visual activity: 50%
Sinapis alba
  Visual activity: 95%
[8]
  control of the dicotyledonous and sedge weeds listed: can be effectively controlled
Monocotyledonous weeds
  control of the monocotyledonous weeds listed: can be controlled
